From ChEMBL document CHEMBL1201862, “PubChem BioAssay data set” (2004)
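Step 1: Grow cells in 96-well plates. Step 2: Expose to compound for 48 hours at 5 concentrations. Step 3: Interpolate endpoints linearly; if unreached, use highest concentration. The concentration for 50% growth inhibition is given as GI50.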 Activity calls are given as the source filed them. Cut-off read from the data, not from the text of the source: active = GI50 up to about 1.1 µM and inactive = higher.

Experiments:
Assay in all cases: NCI tumour cell line growth inhibition, 48 h
EKVX = system: EKVX
BT-549 = system: BT-549
Malme-3M = system: Malme-3M
TK-10 = system: TK-10
RXF 393 = system: RXF 393
HOP-62 = system: HOP-62
NCI-H23 = system: NCI-H23
COLO 205 = system: COLO 205
Hs-578T = system: Hs-578T
SW-620 = system: SW-620
OVCAR-3 = system: OVCAR-3
SK-MEL-2 = system: SK-MEL-2
ACHN = system: ACHN
UACC-62 = system: UACC-62
CAKI-1 = system: CAKI-1
DU-145 = system: DU-145
NCI/ADR-RES = system: NCI/ADR-RES
IGROV-1 = system: IGROV-1
RPMI-8226 = system: RPMI-8226
M14 = system: M14
K562 = system: K562
SNB-19 = system: SNB-19
HCC 2998 = system: HCC 2998
SK-MEL-28 = system: SK-MEL-28
HCT-116 = system: HCT-116
NCI-H226 = system: NCI-H226
HL-60 = system: HL-60
OVCAR-4 = system: OVCAR-4
KM12 = system: KM12
MDA-N = system: MDA-N
SR = system: SR
A549 = system: A549
NCI-H460 = system: NCI-H460
MDA-MB-231 = system: MDA-MB-231
UO-31 = system: UO-31
SF-295 = system: SF-295
SNB-75 = system: SNB-75
OVCAR-8 = system: OVCAR-8
MDA-MB-435 = system: MDA-MB-435
PC-3 = system: PC-3
CCRF-CEM = system: CCRF-CEM
SK-MEL-5 = system: SK-MEL-5
HCT-15 = system: HCT-15
SK-OV-3 = system: SK-OV-3
MOLT-4 = system: MOLT-4
SF-268 = system: SF-268
T47D = system: T47D
OVCAR-5 = system: OVCAR-5
U-251 = system: U-251
SN12C = system: SN12C
UACC-257 = system: UACC-257
SF-539 = system: SF-539
A498 = system: A498
MCF7 = system: MCF7
786-0 = system: 786-0
LOX IMVI = system: LOX IMVI
HT-29 = system: HT-29
HOP-92 = system: HOP-92
NCI-H522 = system: NCI-H522

CC(=O)C(=[N+]=[N-])C(=O)N1CCOC1=O
GI50 (EKVX): > 10 µM (inactive) | GI50 (BT-549): > 10 µM (inactive) | GI50 (Malme-3M): > 10 µM (inactive) | GI50 (TK-10): > 10 µM (inactive) | GI50 (RXF 393): > 10 µM (inactive) | GI50 (HOP-62): > 10 µM (inactive) | GI50 (NCI-H23): > 10 µM (inactive) | GI50 (COLO 205): > 10 µM (inactive) | GI50 (Hs-578T): > 10 µM (inactive) | GI50 (SW-620): > 10 µM (inactive) | GI50 (OVCAR-3): > 10 µM (inactive) | GI50 (SK-MEL-2): > 10 µM (inactive) | GI50 (ACHN): > 10 µM (inactive) | GI50 (UACC-62): > 10 µM (inactive) | GI50 (CAKI-1): > 10 µM (inactive) | GI50 (DU-145): > 10 µM (inactive) | GI50 (NCI/ADR-RES): > 10 µM (inactive) | GI50 (IGROV-1): > 10 µM (inactive) | GI50 (RPMI-8226): > 10 µM (inactive) | GI50 (M14): > 10 µM (inactive) | GI50 (K562): > 10 µM (inactive) | GI50 (SNB-19): > 10 µM (inactive) | GI50 (HCC 2998): > 10 µM (inactive) | GI50 (SK-MEL-28): > 10 µM (inactive) | GI50 (HCT-116): > 10 µM (inactive) | GI50 (NCI-H226): > 10 µM (inactive) | GI50 (HL-60): > 10 µM (inactive) | GI50 (OVCAR-4): > 10 µM (inactive) | GI50 (KM12): > 10 µM (inactive) | GI50 (MDA-N): > 10 µM (inactive) | GI50 (SR): > 10 µM (inactive) | GI50 (A549): > 10 µM (inactive) | GI50 (NCI-H460): > 10 µM (inactive) | GI50 (MDA-MB-231): > 10 µM (inactive) | GI50 (UO-31): > 10 µM (inactive) | GI50 (SF-295): > 10 µM (inactive) | GI50 (SNB-75): > 10 µM (inactive) | GI50 (OVCAR-8): > 10 µM (inactive) | GI50 (MDA-MB-435): > 10 µM (inactive) | GI50 (PC-3): > 10 µM (inactive) | GI50 (CCRF-CEM): > 10 µM (inactive) | GI50 (SK-MEL-5): > 10 µM (inactive) | GI50 (HCT-15): > 10 µM | GI50 (SK-OV-3): > 10 µM (inactive) | GI50 (MOLT-4): > 10 µM (inactive) | GI50 (SF-268): > 10 µM (inactive) | GI50 (T47D): > 10 µM (inactive) | GI50 (OVCAR-5): > 10 µM (inactive) | GI50 (U-251): > 10 µM (inactive) | GI50 (SN12C): > 10 µM (inactive) | GI50 (UACC-257): > 10 µM (inactive) | GI50 (SF-539): > 10 µM (inactive) | GI50 (A498): > 10 µM (inactive) | GI50 (MCF7): > 10 µM (inactive) | GI50 (786-0): > 10 µM (inactive) | GI50 (LOX IMVI): > 10 µM (inactive) | GI50 (HT-29): > 10 µM (inactive)

Clc1ccc(C2=CC(c3ccccc3)N3C(=N[C@H]4CCCC[C@@H]43)N2)cc1 (some centres undefined)
GI50 (EKVX): 4.47 µM (inactive) | GI50 (BT-549): 9.12 µM (inactive) | GI50 (Malme-3M): 2.67 µM (inactive) | GI50 (TK-10): 7.5 µM (inactive) | GI50 (RXF 393): 2.47 µM (inactive) | GI50 (NCI-H23): 7.82 µM (inactive) | GI50 (COLO 205): 1.77 µM (inactive) | GI50 (Hs-578T): 3.12 µM (inactive) | GI50 (SW-620): 3.74 µM (inactive) | GI50 (OVCAR-3): 6.4 µM (inactive) | GI50 (SK-MEL-2): 13.6 µM (inactive) | GI50 (HOP-92): 4.68 µM (inactive) | GI50 (ACHN): 5.24 µM (inactive) | GI50 (UACC-62): 5.82 µM (inactive) | GI50 (CAKI-1): 13.9 µM (inactive) | GI50 (DU-145): 8.41 µM (inactive) | GI50 (NCI/ADR-RES): 4.35 µM (inactive) | GI50 (IGROV-1): 3.39 µM (inactive) | GI50 (RPMI-8226): 2.31 µM (inactive) | GI50 (M14): 2.98 µM (inactive) | GI50 (K562): 2.09 µM (inactive) | GI50 (SNB-19): 4.55 µM (inactive) | GI50 (HCC 2998): 2.08 µM (inactive) | GI50 (SK-MEL-28): 2.79 µM (inactive) | GI50 (HCT-116): 3.03 µM (inactive) | GI50 (NCI-H226): 8.85 µM (inactive) | GI50 (HL-60): 2.82 µM (inactive) | GI50 (OVCAR-4): 5.61 µM (inactive) | GI50 (KM12): 2.07 µM (inactive) | GI50 (MDA-N): 6.05 µM (inactive) | GI50 (SR): 2.14 µM (inactive) | GI50 (A549): 5.47 µM (inactive) | GI50 (NCI-H460): 2.88 µM (inactive) | GI50 (MDA-MB-231): 9.08 µM (inactive) | GI50 (UO-31): 10.8 µM (inactive) | GI50 (SF-295): 7.67 µM (inactive) | GI50 (SNB-75): 3.48 µM (inactive) | GI50 (OVCAR-8): 2.7 µM (inactive) | GI50 (MDA-MB-435): 7.57 µM (inactive) | GI50 (PC-3): 6.56 µM (inactive) | GI50 (CCRF-CEM): 4.94 µM (inactive) | GI50 (SK-MEL-5): 1.71 µM (inactive) | GI50 (HCT-15): 4.08 µM | GI50 (SK-OV-3): 14.3 µM (inactive) | GI50 (MOLT-4): 2.64 µM (inactive) | GI50 (SF-268): 6.14 µM (inactive) | GI50 (T47D): 6.4 µM (inactive) | GI50 (OVCAR-5): 11.5 µM (inactive) | GI50 (U-251): 4.54 µM (inactive) | GI50 (UACC-257): 12.9 µM (inactive) | GI50 (SF-539): 6.08 µM (inactive) | GI50 (A498): 10.4 µM (inactive) | GI50 (MCF7): 3.55 µM (inactive) | GI50 (786-0): 2.79 µM (inactive) | GI50 (LOX IMVI): 6.46 µM (inactive) | GI50 (HT-29): 2.39 µM (inactive)

Cc1[nH]n(-c2ccc(S(=O)(=O)O)cc2)c(=O)c1/N=N/c1ccccc1
GI50 (EKVX): > 100 µM (inactive) | GI50 (BT-549): > 100 µM (inactive) | GI50 (Malme-3M): 51.6 µM (inactive) | GI50 (TK-10): > 100 µM (inactive) | GI50 (RXF 393): > 100 µM (inactive) | GI50 (HOP-62): > 100 µM (inactive) | GI50 (NCI-H23): > 100 µM (inactive) | GI50 (COLO 205): > 100 µM (inactive) | GI50 (Hs-578T): > 100 µM (inactive) | GI50 (SW-620): > 100 µM (inactive) | GI50 (OVCAR-3): > 100 µM (inactive) | GI50 (SK-MEL-2): > 100 µM (inactive) | GI50 (HOP-92): > 100 µM (inactive) | GI50 (ACHN): 55.2 µM (inactive) | GI50 (UACC-62): 95.1 µM (inactive) | GI50 (CAKI-1): > 100 µM (inactive) | GI50 (DU-145): > 100 µM (inactive) | GI50 (NCI/ADR-RES): > 100 µM (inactive) | GI50 (IGROV-1): > 100 µM (inactive) | GI50 (RPMI-8226): > 100 µM (inactive) | GI50 (M14): > 100 µM (inactive) | GI50 (K562): > 100 µM (inactive) | GI50 (SNB-19): > 100 µM (inactive) | GI50 (HCC 2998): 8.04 µM (inactive) | GI50 (SK-MEL-28): > 100 µM (inactive) | GI50 (HCT-116): > 100 µM (inactive) | GI50 (OVCAR-4): > 100 µM (inactive) | GI50 (KM12): > 100 µM (inactive) | GI50 (MDA-N): > 100 µM (inactive) | GI50 (SR): > 100 µM (inactive) | GI50 (A549): > 100 µM (inactive) | GI50 (NCI-H460): > 100 µM (inactive) | GI50 (MDA-MB-231): > 100 µM (inactive) | GI50 (UO-31): > 100 µM (inactive) | GI50 (SF-295): > 100 µM (inactive) | GI50 (SNB-75): > 100 µM (inactive) | GI50 (OVCAR-8): > 100 µM (inactive) | GI50 (MDA-MB-435): > 100 µM (inactive) | GI50 (PC-3): > 100 µM (inactive) | GI50 (SK-MEL-5): > 100 µM (inactive) | GI50 (HCT-15): > 100 µM | GI50 (SK-OV-3): > 100 µM (inactive) | GI50 (MOLT-4): > 100 µM (inactive) | GI50 (SF-268): 50.7 µM (inactive) | GI50 (NCI-H522): 35 µM (inactive) | GI50 (T47D): > 100 µM (inactive) | GI50 (OVCAR-5): > 100 µM (inactive) | GI50 (U-251): > 100 µM (inactive) | GI50 (SN12C): > 100 µM (inactive) | GI50 (UACC-257): > 100 µM (inactive) | GI50 (SF-539): > 100 µM (inactive) | GI50 (A498): > 100 µM (inactive) | GI50 (MCF7): > 100 µM (inactive) | GI50 (786-0): > 100 µM (inactive) | GI50 (LOX IMVI): 26.7 µM (inactive) | GI50 (HT-29): > 100 µM (inactive)
